From ChEMBL document CHEMBL5614424, “Natural Product-Inspired Discovery of Naphthoquinone-Furo-Piperidine Derivatives as Novel STAT3 Inhibitors for the Treatment of Triple-Negative Breast Cancer” (J Med Chem, 2024) come the findings set out here.

The source made the active and inactive calls.

A word on the Cmax: it is the highest concentration seen after dosing. By IC50 is commonly meant the concentration that gives 50% inhibition. What is called Tmax is the time at which the peak concentration occurs. One may read the bioavailability as the share of a dose that reaches the circulation, judged against a reference dose that is usually intravenous. A high value points to much systemic uptake. One may read the half-life as the time needed for the level to fall by half in the phase considered. The low end stands for rapid decline, the high end for slow decline. In general, AUC(0-t) refers to exposure summed from dosing to a finite time, without extrapolation to infinity. Lower therefore signals less exposure. Broadly, the AUC(0-inf) is total exposure, with the tail of the curve extrapolated. A lower AUC(0-inf) goes with low exposure.

The target of data set [1] is Signal transducer and activator of transcription 3 (Homo sapiens) (UniProt P40763). The experiment in a line: Suppression of STAT3 activation in human MDA-MB-231 cell assessed as decrease in phosphorylated STAT3 (p-STAT3 Tyr705) level at 3 uM measured after 24 hrs by Western blot analysis. The data set is classed as cell-based.
Chain of Signal transducer and activator of transcription 3 (Homo sapiens) (P40763 whole entry): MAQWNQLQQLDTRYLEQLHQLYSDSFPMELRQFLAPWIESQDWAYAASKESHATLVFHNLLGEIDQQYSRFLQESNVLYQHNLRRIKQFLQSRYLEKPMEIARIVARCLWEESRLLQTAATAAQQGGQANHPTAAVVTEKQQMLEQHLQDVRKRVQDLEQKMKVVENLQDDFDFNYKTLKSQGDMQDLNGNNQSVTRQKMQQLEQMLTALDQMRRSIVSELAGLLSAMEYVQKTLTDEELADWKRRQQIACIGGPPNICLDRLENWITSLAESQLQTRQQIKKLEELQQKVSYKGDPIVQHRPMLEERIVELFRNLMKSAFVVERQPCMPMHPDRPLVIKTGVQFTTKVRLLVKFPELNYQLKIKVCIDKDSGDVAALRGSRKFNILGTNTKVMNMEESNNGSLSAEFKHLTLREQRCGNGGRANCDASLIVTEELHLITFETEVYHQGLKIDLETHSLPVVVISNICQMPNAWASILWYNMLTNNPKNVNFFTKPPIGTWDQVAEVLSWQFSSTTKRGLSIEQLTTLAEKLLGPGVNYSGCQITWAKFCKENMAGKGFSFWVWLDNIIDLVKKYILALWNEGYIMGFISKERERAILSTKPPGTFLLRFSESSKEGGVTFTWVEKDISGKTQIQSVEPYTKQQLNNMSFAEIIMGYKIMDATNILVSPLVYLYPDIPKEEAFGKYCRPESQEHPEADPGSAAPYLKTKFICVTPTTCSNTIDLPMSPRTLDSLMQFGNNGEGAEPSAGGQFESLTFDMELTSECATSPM
Data set [2] in a line: Cmax in male rat at 10 mg/kg, po measured upto 24 hrs by LC/MS/MS analysis. In kind it is ADME, organism-based. The following applies: in vivo.
Data set [3] can be described thus: Antiproliferative activity against human MCF-10A cells assessed as cell viability incubated for 48 hrs measured after additional incubation with MTT. The data set is classed as toxicity, cell-based.
Data set [4] in a line: Tmax in male rat at 10 mg/kg, po measured upto 24 hrs by LC/MS/MS analysis. In kind it is ADME, organism-based. The following applies: in vivo.
Data set [5] can be described thus: Oral bioavailability in male rat at 10 mg/kg measured upto 24 hrs by LC/MS/MS analysis. In kind it is ADME, organism-based. The following applies: in vivo.
The nature of data set [6]: Half life in male rat at 10 mg/kg, ip measured upto 24 hrs by LC/MS/MS analysis. In kind it is ADME, organism-based. The following applies: in vivo.
Data set [7] is described as follows: Tmax in male rat at 5 mg/kg, iv measured upto 24 hrs by LC/MS/MS analysis. In kind it is ADME, organism-based. The following applies: in vivo.
Data set [8] is described as follows: Cmax in male rat at 5 mg/kg, iv measured upto 24 hrs by LC/MS/MS analysis. In kind it is ADME, organism-based. The following applies: in vivo.
Data set [9] in a line: Cmax in male rat at 10 mg/kg, ip measured upto 24 hrs by LC/MS/MS analysis. The data set is classed as ADME, organism-based. The following applies: in vivo.
The nature of data set [10]: AUC(0 to t) in male rat at 10 mg/kg, ip measured upto 24 hrs by LC/MS/MS analysis. The data set is classed as ADME, organism-based. The following applies: in vivo.
Data set [11] deals with MDA-MB-231. The experiment in a line: Antiproliferative activity against human MDA-MB-231 cells assessed as cell viability incubated for 48 hrs measured after additional incubation with MTT. The following applies: MDA-MB-231, 48 h. In kind it is functional, cell-based.
Data set [12] can be described thus: AUC(0 to infinity) in male rat at 10 mg/kg, po measured upto 24 hrs by LC/MS/MS analysis. The following applies: in vivo. The data set is classed as ADME, organism-based.
The nature of data set [13]: AUC(0 to t) in male rat at 10 mg/kg, po measured upto 24 hrs by LC/MS/MS analysis. In kind it is ADME, organism-based. The following applies: in vivo.
Data set [14] can be described thus: Half life in male rat at 10 mg/kg, po measured upto 24 hrs by LC/MS/MS analysis. The following applies: in vivo. The data set is classed as ADME, organism-based.
Data set [15] is described as follows: AUC(0 to infinity) in male rat at 10 mg/kg, ip measured upto 24 hrs by LC/MS/MS analysis. In kind it is ADME, organism-based. The following applies: in vivo.
The nature of data set [16]: Half life in male rat at 5 mg/kg, iv measured upto 24 hrs by LC/MS/MS analysis. The data set is classed as ADME, organism-based. The following applies: in vivo.
Data set [17] deals with Signal transducer and activator of transcription 3 (Homo sapiens) (UniProt P40763). The experiment in a line: Suppression of STAT3 activation in human MDA-MB-468 cell assessed as decrease in phosphorylated STAT3 (p-STAT3 Tyr705) level at 3 uM measured after 24 hrs by Western blot analysis. In kind it is cell-based. (In general: Immunoblotting shows a protein as a band on a membrane.)

Data set [18] can be described thus: AUC(0 to infinity) in male rat at 5 mg/kg, iv measured upto 24 hrs by LC/MS/MS analysis. The data set is classed as ADME, organism-based. The following applies: in vivo.
Data set [19] concerns MDA-MB-468. The experiment in a line: Antiproliferative activity against human MDA-MB-468 cells assessed as cell viability incubated for 48 hrs measured after additional incubation with MTT. The data set is classed as functional, cell-based. The following applies: MDA-MB-468, 48 h.
Data set [20] can be described thus: Tmax in male rat at 10 mg/kg, ip measured upto 24 hrs by LC/MS/MS analysis. In kind it is ADME, organism-based. The following applies: in vivo.
A further data set concerns L02. The data set is described as follows: Antiproliferative activity against human L02 cells assessed as cell viability incubated for 48 hrs measured after additional incubation with MTT. The data set is classed as functional, cell-based. The following applies: L02, 48 h.
Data set [21] can be described thus: AUC(0 to t) in male rat at 5 mg/kg, iv measured upto 24 hrs by LC/MS/MS analysis. The following applies: in vivo. In kind it is ADME, organism-based.
Data set [22] concerns MDA-MB-231. The experiment in a line: Induction of apoptosis in human MDA-MB-231 cells assessed as early apoptotic cells at 5 uM measured after 24 hrs incubation by the annexin V/propidium iodide (PI) double staining assay (reference value: 2.46%). In kind it is functional.
In data set [23] the test system is MDA-MB-468. The data set is described as follows: Induction of apoptosis in human MDA-MB-468 cells assessed as early apoptotic cells at 5 uM measured after 24 hrs incubation by the annexin V/propidium iodide (PI) double staining assay (reference value: 3.98%). In kind it is functional.
The test system of data set [24] is MDA-MB-468. The experiment in a line: Induction of apoptosis in human MDA-MB-468 cells assessed as late apoptotic cells at 5 uM measured after 24 hrs incubation by the annexin V/propidium iodide (PI) double staining assay (reference value: 3.64%). In kind it is functional.
In data set [25] the test system is MDA-MB-231. The data set is described as follows: Induction of apoptosis in human MDA-MB-231 cells assessed as late apoptotic cells at 5 uM measured after 24 hrs incubation by the annexin V/propidium iodide (PI) double staining assay (reference value: 2.69%). In kind it is functional.

For the compound `O=C1C(=O)c2c(oc3c2CCN(CCO)C3)-c2ccccc21`, the inhibition result in data set [1] and in data set [17] was “Active” throughout. The Cmax came to 34.4 ng/mL in data set [2], 237 ng/mL in [8] and 107 ng/mL in data set [9]. In addition, the IC50 at 48 h in data set [3] amounted to 2890 nM. In addition, the Tmax came to 1.1 h in [4], 4.8 min in data set [7] and 0.7 h in [20]. The compound also displayed a bioavailability in data set [5] of 3.8%. For the same compound, the half-life in [6] is 3.5 h; in data set [14], 4 h; in [16], 2.4 h. Moreover, the AUC(0-t) at 24 h in data set [10] was determined as 219 ng·h/mL; in data set [13], 47.2 ng·h/mL; in [21], 611 ng·h/mL. Besides, the concentration for half-maximal inhibition (IC50) in the data set on MDA-MB-231 [11] was found to be 1190 nM; in the data set with MDA-MB-468 [19], 1570 nM; with L02, 3910 nM. Moreover, the AUC(0-inf) is 50.1 ng·h/mL in [12], 241 ng·h/mL in data set [15] and 645 ng·h/mL in data set [18].

For `CC(C)C[C@@H](CO)N1CCc2c(oc3c2C(=O)C(=O)c2ccccc2-3)C1.Cl`, the maximum concentration (Cmax) in data set [2] is 78.4 ng/mL; in data set [8], 972 ng/mL; in [9], 272 ng/mL. Further, the Tmax in data set [4] was 0.4 h; in data set [7] it was 4.8 min; in [20] it was 0.1 h. Further, in data set [5], the bioavailability is 10.9%. For the same compound, the half-life in data set [6] was 17.2 h; in data set [14] it was 6.5 h; in data set [16], 17.2 h. Also, the AUC(0-t) at 24 h is 571 ng·h/mL in data set [10], 107 ng·h/mL in data set [13] and 490 ng·h/mL in data set [21]. The AUC(0-inf) in data set [12] came to 106 ng·h/mL; in data set [15], 523 ng·h/mL; in data set [18], 493 ng·h/mL.

Consider `CC(=O)c1cc2c(o1)C(=O)c1ccccc1C2=O` [NAPABUCASIN], for which the Activity in the data set with MDA-MB-231 [22] came out at 4.76%; in the data set on MDA-MB-468 [23] it was 6.32%; with MDA-MB-468 [24], 10%; in the data set on MDA-MB-231 [25], 12.07%. Besides, in [3], the half-maximal inhibitory concentration (IC50) at 48 h is 7940 nM. The IC50 in the data set on MDA-MB-231 [11] was 2940 nM; in the data set with MDA-MB-468 [19], 5220 nM.
